Measured values published in ChEMBL document CHEMBL4229350, “Antimicrobial activity and self-assembly behavior of antimicrobial peptide chensinin-1b with lipophilic alkyl tails” (Eur J Med Chem, 2018).
Calls of active or inactive are those of the source. No cut-off for these calls is given here. Bridge positions count the residues as written; N and C are the ends. Square brackets hold non-standard residues; d marks the D form. Peptide text beside a SMILES is read from it. * marks the point of attachment. X1 = CC[C@H](C)CCCCC(=O)*; Dab = NCC[C@H](N)C(=O)O

What was measured:
U-937 [1] = assay: Antiinflammatory activity in human U937 cells assessed as inhibition of LPS-induced TNF-alpha production up to 40 microg/ml after 24 hrs by ELISA relative to control; format: functional
U-937 [2] = assay: Antiinflammatory activity in human U937 cells assessed as inhibition of LPS-induced IL-6 production up to 40 microg/ml after 24 hrs by ELISA relative to control; format: functional
Escherichia coli [3] = assay: Antimicrobial activity against Escherichia coli AS 1.349 assessed as induction of outer membrane permeabilization by measuring NPN uptake up to 50 uM by fluorescence assay; format: functional, organism-based
Staphylococcus aureus [4] = assay: Antimicrobial activity against Staphylococcus aureus AS 1.72 assessed as induction of outer membrane permeabilization by measuring NPN uptake up to 50 uM by fluorescence assay; format: functional, organism-based
Lipid bilayer [5] = assay: Induction of membrane permeabilization in calcein loaded LPS/PC/PG large unilamellar vesicles assessed as calcein leakage after 15 mins by fluorescence assay
Escherichia coli [6] = assay: Antimicrobial activity against Escherichia coli AS 1.349 assessed as induction of outer membrane permeabilization by measuring NPN uptake by fluorescence assay; format: functional, organism-based
Staphylococcus aureus [7] = assay: Antimicrobial activity against Staphylococcus aureus AS 1.72 assessed as induction of outer membrane permeabilization by measuring NPN uptake by fluorescence assay; format: functional, organism-based
Staphylococcus aureus [8] = assay: Antimicrobial activity against Staphylococcus aureus AS 1.72 assessed as induction of bacterial cytoplasmic membrane depolarization at 2 times MIC after 6 mins by diSC3-5 dye-based fluorescence assay; format: functional, organism-based
[9] = Hemolytic activity against human erythrocytes after 1 hr; format: ADME, cell-based, Erythrocyte
MCF7 = assay: Cytotoxicity against human MCF7 cells assessed as reduction in cell viability after 1 hr by MTT assay; format: functional, cell-based; conditions: MCF7, 1 h
A-375 = assay: Cytotoxicity against human A375 cells assessed as reduction in cell viability after 1 hr by MTT assay; format: functional, cell-based; conditions: A-375, 1 h
HeLa = assay: Cytotoxicity against human HeLa cells assessed as reduction in cell viability after 1 hr by MTT assay; format: functional, cell-based
Enterococcus faecalis = assay: Antimicrobial activity against Enterococcus faecalis CGMCC 1.595 after 18 hrs by micro dilution method; format: functional; conditions: CGMCC 1.595, 18 h
Enterococcus faecium = assay: Antimicrobial activity against Enterococcus faecium CGMCC 1.2334 after 18 hrs by micro dilution method; format: functional; conditions: CGMCC 1.2334, 18 h
Lactococcus lactis = assay: Antimicrobial activity against Streptococcus lactis AS 1.1690 after 18 hrs by micro dilution method; format: functional; conditions: AS 1.1690, 18 h
Bacillus cereus = assay: Antimicrobial activity against Bacillus cereus AS 1.126 after 18 hrs by micro dilution method; format: functional; conditions: AS 1.126, 18 h
Staphylococcus aureus [10] = assay: Antimicrobial activity against Staphylococcus aureus AS 1.72 after 18 hrs by micro dilution method; format: functional; conditions: AS 1.72, 18 h
Pseudomonas aeruginosa = assay: Antimicrobial activity against Pseudomonas aeruginosa CGMCC 1.860 after 18 hrs by micro dilution method; format: functional; conditions: CGMCC 1.860, 18 h
Escherichia coli [11] = assay: Antimicrobial activity against Escherichia coli AS 1.349 after 18 hrs by micro dilution method; format: functional; conditions: AS 1.349, 18 h
Lipid bilayer [12] = assay: Induction of membrane permeabilization in calcein loaded LPS/PC/PG large unilamellar vesicles assessed as calcein leakage at 50 uM after 15 mins by fluorescence assay relative to control
Lipid bilayer [13] = assay: Induction of membrane permeabilization in calcein loaded PC/cholesterol large unilamellar vesicles assessed as calcein leakage at 50 uM after 10 mins by fluorescence assay relative to control
[14] = Self-assembly property assessed as diameter of monodispersed micelles at 1 mg/ml at pH 7 by DLS method; format: physicochemical
[15] = Self-assembly property assessed as diameter of monodispersed micelles at 1 mg/ml at pH 2 by DLS method; format: physicochemical
[16] = Self-assembly property assessed as diameter of monodispersed micelles at 1 mg/ml at pH 7 by TEM analysis; format: physicochemical

CC[C@H](C)CCCCC(=O)N[C@@H](CCN)C(=O)N[C@H](C(=O)N[C@@H](CCN)C(=O)N[C@H]1CCNC(=O)[C@H]([C@@H](C)O)NC(=O)[C@H](CCN)NC(=O)[C@H](CCN)NC(=O)[C@H](CC(C)C)NC(=O)[C@@H](Cc2ccccc2)NC(=O)[C@H](CCN)NC1=O)[C@@H](C)O (X1-[Dab]T[Dab][Dab][Dab][dF]L[Dab][Dab]T; lactam 4-C)
inhibition (INH) (U-937 [1]): 28%
inhibition (INH) (U-937 [2]): 44%

GENTAMICIN
Activity (Escherichia coli [3]): Active
Activity (Staphylococcus aureus [4]): Active

H-SKVWRHWRRFWHRAHRKL-OH
Activity (Lipid bilayer [5]): Dose-dependent effect
Activity (Escherichia coli [6]): Dose-dependent effect
Activity (Staphylococcus aureus [7]): Dose-dependent effect
Activity (Staphylococcus aureus [8]): Active
HC50 at 1 h [9]: > 500 µM
IC50 (MCF7): 51.9 µM
IC50 (A-375): > 125 µM
IC50 (HeLa): 113 µM
MIC (Enterococcus faecalis): 3.13 µM
MIC (Enterococcus faecium): 1.56 µM
MIC (Lactococcus lactis): 3.13 µM
MIC (Bacillus cereus): 3.13 µM
MIC (Staphylococcus aureus [10]): 3.13 µM
MIC (Pseudomonas aeruginosa): 1.56 µM
MIC (Escherichia coli [11]): 6.25 µM
Activity (Lipid bilayer [12]): 62%
Activity (Lipid bilayer [13]): 20%
Activity [14]: 60 nm
Activity [15]: 3990 nm
Activity [16]: 141 nm
